Laboratory results as given in BindingDB's records for patent US10023557 (LIFESCI PHARMACEUTICALS, INC., 2018).

Molecular target: Plasma kallikrein (Homo sapiens, UniProt P03952)
Assay: In Vitro Enzyme Inhibition of hPK
Settings: pH 7.5
Description: A 10 mM solution of the test compound was made in DMSO. […] A control tube containing only DMSO is included. […] 50 μL was removed from this mixture and placed into duplicate wells on a Microfluor 1Black U-bottom microtiter plate (Thermo Scientific). This plate was incubated for 5 minutes at 37° C. To each well, 50 μL of pre-warmed 2×PFR-AMC was added to start the enzymatic reaction. Cleavage of PFR-AMC was monitored in a Biotek Synergy H4 reader set at 37° C. Readings are taken every 43 seconds for 1 hour. […] The IC50 is calculated using the Gen5 (Biotek Instruments).

Plasma kallikrein, sequence (P03952 20-390 limits assumed): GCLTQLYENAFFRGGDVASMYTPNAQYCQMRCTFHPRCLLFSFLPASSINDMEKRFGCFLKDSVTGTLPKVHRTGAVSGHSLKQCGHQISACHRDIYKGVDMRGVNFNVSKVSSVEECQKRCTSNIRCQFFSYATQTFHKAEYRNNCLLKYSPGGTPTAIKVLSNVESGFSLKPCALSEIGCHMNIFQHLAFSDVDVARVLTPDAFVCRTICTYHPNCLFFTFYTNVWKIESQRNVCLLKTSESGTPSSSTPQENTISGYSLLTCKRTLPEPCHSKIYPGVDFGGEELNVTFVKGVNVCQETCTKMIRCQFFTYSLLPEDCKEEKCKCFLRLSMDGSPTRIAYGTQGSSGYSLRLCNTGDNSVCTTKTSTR
Plasma kallikrein, sequence (P03952 391-638 limits assumed): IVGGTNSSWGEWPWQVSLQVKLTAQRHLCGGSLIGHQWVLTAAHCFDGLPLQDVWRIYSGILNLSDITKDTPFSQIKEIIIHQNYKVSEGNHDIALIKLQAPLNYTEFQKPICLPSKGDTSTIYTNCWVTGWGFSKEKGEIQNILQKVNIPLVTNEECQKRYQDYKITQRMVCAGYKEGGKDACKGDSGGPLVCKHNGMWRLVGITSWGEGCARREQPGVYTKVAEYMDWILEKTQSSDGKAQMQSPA

IC50: < 100 nM
SMILES: Cc1nc(N)ccc1CNC(=O)c1ccnc(CC2=CC3C=C(Cl)C=NC3C=C2)c1 (stereo unspecified) [US10023557, Example 39]
